From patent publication US8916565B2, “Pyrrolopyrazine-spirocyclic piperidine amides as modulators of ion channels” (priority 2011, dated 2014)

Target: human NaV subtype, like NaV 1.7 (Homo sapiens, UniProt Q15858)
Experiment: E-VIPR optical membrane potential assay with electrical stimulation
Assay type: cell-based
Conditions: active against one or more sodium channels; Table 3 does not name the assay or NaV subtype; read-out: Binned Activity Data (IC50)

Chain of human NaV subtype, like NaV 1.7 (Q15858 whole entry): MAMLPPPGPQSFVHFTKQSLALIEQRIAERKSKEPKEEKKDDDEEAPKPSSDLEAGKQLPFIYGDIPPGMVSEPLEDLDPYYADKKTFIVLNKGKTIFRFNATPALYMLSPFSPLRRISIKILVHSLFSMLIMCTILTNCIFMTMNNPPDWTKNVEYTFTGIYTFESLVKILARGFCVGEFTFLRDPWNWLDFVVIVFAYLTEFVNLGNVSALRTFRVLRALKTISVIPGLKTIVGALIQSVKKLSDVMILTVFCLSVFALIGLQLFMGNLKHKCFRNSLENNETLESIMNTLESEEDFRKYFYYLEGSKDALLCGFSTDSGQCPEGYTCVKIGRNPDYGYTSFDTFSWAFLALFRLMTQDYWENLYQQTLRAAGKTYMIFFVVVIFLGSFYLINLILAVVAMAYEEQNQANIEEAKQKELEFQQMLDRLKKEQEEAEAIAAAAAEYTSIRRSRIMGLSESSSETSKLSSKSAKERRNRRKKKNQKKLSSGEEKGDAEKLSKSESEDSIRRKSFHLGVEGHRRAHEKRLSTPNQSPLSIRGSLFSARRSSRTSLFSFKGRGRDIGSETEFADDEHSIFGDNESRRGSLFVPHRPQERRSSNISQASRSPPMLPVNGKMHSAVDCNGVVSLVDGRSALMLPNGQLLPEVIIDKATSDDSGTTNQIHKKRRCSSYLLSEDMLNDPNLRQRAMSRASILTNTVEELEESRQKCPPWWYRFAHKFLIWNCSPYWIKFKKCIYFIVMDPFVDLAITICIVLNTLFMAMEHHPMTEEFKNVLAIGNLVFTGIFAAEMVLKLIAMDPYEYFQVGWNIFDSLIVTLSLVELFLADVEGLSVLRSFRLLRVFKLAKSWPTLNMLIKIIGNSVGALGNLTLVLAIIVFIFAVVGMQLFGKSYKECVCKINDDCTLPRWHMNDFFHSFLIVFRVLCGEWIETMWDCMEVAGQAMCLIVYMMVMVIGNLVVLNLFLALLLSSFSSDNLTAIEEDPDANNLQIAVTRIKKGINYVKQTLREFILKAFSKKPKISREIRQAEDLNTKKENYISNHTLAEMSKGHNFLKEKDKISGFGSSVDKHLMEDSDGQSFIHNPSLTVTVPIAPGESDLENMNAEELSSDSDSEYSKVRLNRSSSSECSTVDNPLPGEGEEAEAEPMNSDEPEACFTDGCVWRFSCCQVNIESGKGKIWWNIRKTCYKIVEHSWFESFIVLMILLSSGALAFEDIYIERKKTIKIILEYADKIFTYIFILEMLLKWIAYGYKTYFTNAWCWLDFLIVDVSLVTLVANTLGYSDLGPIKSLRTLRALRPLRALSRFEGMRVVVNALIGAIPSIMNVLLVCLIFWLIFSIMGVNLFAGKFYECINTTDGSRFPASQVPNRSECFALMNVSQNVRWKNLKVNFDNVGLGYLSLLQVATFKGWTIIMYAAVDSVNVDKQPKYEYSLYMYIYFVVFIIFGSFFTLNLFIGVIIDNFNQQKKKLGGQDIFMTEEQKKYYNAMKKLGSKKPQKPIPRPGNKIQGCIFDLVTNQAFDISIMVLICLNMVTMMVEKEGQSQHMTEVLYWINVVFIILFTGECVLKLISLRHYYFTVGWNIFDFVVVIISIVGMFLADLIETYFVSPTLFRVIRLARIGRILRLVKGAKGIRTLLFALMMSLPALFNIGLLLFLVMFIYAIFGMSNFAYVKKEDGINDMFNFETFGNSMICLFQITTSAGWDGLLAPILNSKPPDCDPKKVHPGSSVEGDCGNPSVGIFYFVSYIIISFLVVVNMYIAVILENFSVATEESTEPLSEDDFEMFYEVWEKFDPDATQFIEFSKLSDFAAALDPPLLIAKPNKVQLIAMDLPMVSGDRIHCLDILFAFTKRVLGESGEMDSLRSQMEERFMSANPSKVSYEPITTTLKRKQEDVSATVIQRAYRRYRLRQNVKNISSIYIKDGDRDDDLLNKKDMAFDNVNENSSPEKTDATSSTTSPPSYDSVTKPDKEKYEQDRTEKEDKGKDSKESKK

| Structure (SMILES) | IC50 [nM] |
| --- | --- |
| CN1CCn2c(C(F)(F)F)cc(Cl)c2C12CCN(C(=O)c1ccc(CC(C)(C)O)c(F)c1)CC2 [Compound 401] | ≤ 2000 |
| CN1CCn2c(Cl)ccc2C12CCN(C(=O)c1ccc(Oc3ccccc3)cc1)CC2 [Compound 406] | 2000 to 5000 |
| CC(C)CCOc1ccc(C(=O)N2CCC3(CC2)NC(C)(C)Cn2c(C(=O)C(F)(F)F)ccc23)cc1 [Compound 409] | ≤ 2000 |
| COc1cc(C(=O)N2CCC3(CC2)c2c(F)cc(C(F)(F)F)n2CCN3C)ccc1C1(O)CCC1 [Compound 410] | ≤ 2000 |
| C[C@H]1Cn2c(C(=O)C(F)(F)F)ccc2C2(CCN(C(=O)c3ccc(C(C)(C)O)c(F)c3)CC2)N1C [Compound 411] | ≤ 2000 |
| CC[C@@H](C)Oc1ccc(C(=O)N2CCC3(CC2)c2ccc(C(F)(F)C(F)(F)F)n2CCN3C)cc1OC [Compound 412] | ≤ 2000 |
| COc1ccc(C(=O)N2CCC3(CC2)c2ccc(C(=O)C(C)C)n2CCN3C)cc1Cl [Compound 413] | ≤ 2000 |
| CN1CCn2c(Cl)ccc2C12CCN(C(=O)c1ccc(COc3ccccc3)cc1)CC2 [Compound 414] | 2000 to 5000 |
| CNS(=O)(=O)c1ccc(C(=O)N2CCC3(CC2)c2c(F)cc(C(F)(F)F)n2CCN3C)cc1 [Compound 415] | ≤ 2000 |
| CCOc1ccc(C(=O)N2CCC3(CC2)c2ccc(C(C)=O)n2CCN3C)cc1OCC [Compound 416] | > 5000 |
| CC(=O)c1ccc2n1CC(C)(C)NC21CCN(C(=O)c2ccc(OC(C)C)c(C)c2)CC1 [Compound 418] | ≤ 2000 |
| CCOc1ccc(C(=O)N2CCC3(CC2)c2c(Cl)cc(C(F)(F)F)n2CCN3C)cc1C [Compound 420] | ≤ 2000 |
| Cc1cc(C(=O)N2CCC3(CC2)c2cc(C(=O)C(F)(F)F)cn2C(C)(C)CN3C)ccc1C(C)(C)O [Compound 421] | > 5000 |
| COc1cc(C(=O)N2CCC3(CC2)c2ccc(C(=O)C(F)(F)F)n2CCN3C)ccc1C(C)(C)C [Compound 423] | ≤ 2000 |
| Cc1cc(C(=O)N2CCC3(CC2)c2ccc(Cl)n2CCN3C)ccc1-c1ccccc1 [Compound 424] | ≤ 2000 |
| CC(=O)c1ccc2n1CCN(C)C21CCN(C(=O)c2ccc(C3CC3)cc2)CC1 [Compound 425] | > 5000 |
| COc1cc(C(=O)N2CC[C@@]3(c4ccc(C(F)(F)F)n4CCN3C)[C@@H](C)C2)ccc1OC(C)C [Compound 429] | 2000 to 5000 |
| Cc1cc(C(=O)N2CCC3(CC2)c2cccn2CCN3C)ccc1OC(C)C [Compound 430] | > 5000 |
| CC(C)Oc1ccc(C(=O)N2CCC3(CC2)c2c(F)cc(C(F)(F)F)n2CCN3C)cn1 [Compound 431] | 2000 to 5000 |
| COc1ccc(C(=O)N2CCC3(CC2)c2ccc(C(=O)C(F)(F)F)n2C[C@@H](C)N3C)cc1C [Compound 432] | 2000 to 5000 |
| COCCOc1ccc(C(=O)N2CCC3(CC2)c2ccc(C(=O)C(F)(F)F)n2CCN3C)cc1 [Compound 434] | > 5000 |
| CC(C)Oc1ccc(C(=O)N2CCC3(CC2)c2c(F)cc(C(F)(F)F)n2CCN3C)cc1F [Compound 436] | ≤ 2000 |
| Cc1cc(C(=O)N2CCC3(CC2)c2ccc(C(=O)C(F)(F)F)n2C(C)(C)CN3C)ccc1OC(C)C [Compound 437] | ≤ 2000 |
| CC(C)CCOc1ccc(C(=O)N2CCC3(CC2)c2ccc(C(=O)C(F)(F)F)n2CCN3C)nc1 [Compound 438] | ≤ 2000 |

| Structure (SMILES) | IC50 [nM] |
| --- | --- |
| CC(C)Oc1ccc(C(=O)N2CCC3(CC2)c2ccc(C(=O)C(F)(F)F)n2C[C@H](C)N3C)cc1F [Compound 439] | ≤ 2000 |
| CC1(C)Cn2c(C(=O)C(F)(F)F)ccc2C2(CCN(C(=O)c3ccc(S(=O)(=O)NC4CC4)cc3)CC2)N1 [Compound 442] | ≤ 2000 |
| CC(C)CCOc1ccc(C(=O)N2CCC3(CC2)c2ccc(C(=O)C(F)(F)F)n2C(C)CN3C)nc1 (stereo not shown) [Compound 444] | ≤ 2000 |
| CC(C)Oc1ccc(C(=O)N2CCC3(CC2)c2ccc(C(=O)C4(C)CC4)n2CCN3C)c(F)c1 [Compound 445] | ≤ 2000 |
| CCOc1ccc(C(=O)N2CCC3(CC2)c2ccc(C(=O)C(F)(F)F)n2CCN3C)cc1F [Compound 446] | 2000 to 5000 |
| CC(=O)c1ccc2n1CCN(C)C21CCN(C(=O)c2ccc(COCC(F)(F)F)cc2)CC1 [Compound 447] | > 5000 |
| COc1ccc(C(=O)N2CCC3(CC2)c2ccc(C(=O)C4(C)CC4)n2CCN3C)nc1C [Compound 448] | ≤ 2000 |
| C[C@H]1Cn2c(C(=O)C(F)(F)F)ccc2C2(CCN(C(=O)c3ccc(COCCC(F)(F)F)cc3)CC2)N1C [Compound 449] | ≤ 2000 |
| CC(=O)c1cc2n(c1)CC(C)(C)NC21CCN(C(=O)c2ccc(OC(C)C)c(C)c2)CC1 [Compound 454] | > 5000 |
| COc1ccc(C(=O)N2CCC3(CC2)c2ccc(C(=O)C(F)(F)F)n2CCN3C)cc1OC(C)C [Compound 455] | ≤ 2000 |
| CC(=O)c1ccc2n1CCN(C)C21CCN(C(=O)c2ccc(C(C)(C)O)c(C)c2)CC1 [Compound 456] | 2000 to 5000 |
| Cc1cc(C(=O)N2CCC3(CC2)c2cccn2CCN3C)ccc1C(C)(C)O [Compound 457] | > 5000 |
| COC(=O)C1CN(C)C2(CCN(C(=O)c3ccc(OC(C)C)c(OC)c3)CC2)c2ccc(C(F)(F)F)n21 (stereo not shown) [Compound 458] | 2000 to 5000 |
| COc1ccc(C(=O)N2CCC3(CC2)c2ccc(C(=O)C(F)(F)F)n2CCN3C)cc1C(F)(F)F [Compound 459] | ≤ 2000 |
| CC(=O)c1ccc2n1CCN(C)C21CCN(C(=O)c2ccc(OCC(C)(C)C)cc2)CC1 [Compound 462] | ≤ 2000 |
| C[C@H]1Cn2c(C(=O)C(F)(F)F)ccc2C2(CCN(C(=O)c3ccc(OCC(F)(F)F)cc3)CC2)N1C [Compound 463] | ≤ 2000 |
| CN1CCn2c(ccc2C(F)(F)C(F)(F)F)C12CCN(C(=O)c1ccc(S(=O)(=O)C(C)(C)C)cc1)CC2 [Compound 464] | ≤ 2000 |
| Cc1cc(C(=O)N2CCC3(CC2)c2c(Cl)cc(C(F)(F)F)n2CCN3C)ccc1C(C)(C)O [Compound 466] | ≤ 2000 |
| COc1cc(C(=O)N2CCC3(CC2)NC(C)(C)Cn2c(C(=O)C(F)(F)F)ccc23)ccc1COCC(F)(F)F [Compound 467] | ≤ 2000 |
| Cc1nc(C(=O)N2CCC3(CC2)c2ccc(C(=O)C(F)(F)F)n2CCN3C)ccc1OC(C)C [Compound 468] | ≤ 2000 |
| COc1cc(C(=O)N2CCC3(CC2)c2ccc(C(C)=O)n2CCN3C)ccc1COCC(F)(F)F [Compound 470] | ≤ 2000 |
| Cc1cc(C(=O)N2CCC3(CC2)c2ccc(C(=O)C(F)(F)F)n2CCN3C)ccc1C(F)(F)F [Compound 471] | ≤ 2000 |
| CC(=O)c1ccc2n1CCN(C)C21CCN(C(=O)c2ccc(C(C)(C)C)cc2)CC1 [Compound 473] | > 5000 |

More lines, now with the values ahead:

| IC50 [nM] | Structure (SMILES) |
| --- | --- |
| 2000 to 5000 | CN1CCn2c(C(=O)C(F)(F)F)ccc2C12CCN(C(=O)c1ccc(Oc3ccccc3)cc1)CC2 [Compound 402] |
| > 5000 | CN1CCn2c(C(F)(F)F)ccc2C12CCN(C(=O)c1ccc(Cl)cc1)CC2 [Compound 403] |
| ≤ 2000 | CC(C)Oc1ccc(C(=O)N2CCC3(CC2)NC(C)(C)Cn2c(C(=O)C(F)(F)F)ccc23)c(F)c1 [Compound 404] |
| ≤ 2000 | COc1cc(C(=O)N2CCC3(CC2)NCC(C)(C)n2c(C(F)(F)F)ccc23)ccc1OC(C)C [Compound 405] |
| 2000 to 5000 | COc1cc(C(=O)N2CCC3(CC2)c2ccc(C(F)(F)F)n2CCN3C)ccc1O [Compound 407] |
| ≤ 2000 | CCC(C)(C)c1ccc(C(=O)N2CCC3(CC2)NC(C)(C)Cn2c(C(=O)C(F)(F)F)ccc23)cc1 [Compound 408] |
| > 5000 | CN1CCn2c(C(=O)C(F)(F)F)ccc2C12CCN(C(=O)c1cc(O)ccc1F)CC2 [Compound 417] |
| ≤ 2000 | CNC(=O)N1CCn2c(C(F)(F)F)ccc2C12CCN(C(=O)c1ccc(OC(C)C)c(Cl)c1)CC2 [Compound 419] |
| ≤ 2000 | CN1CCn2c(C(F)(F)F)ccc2C12CCN(C(=O)c1cccnc1Oc1ccccc1)CC2 [Compound 422] |
| ≤ 2000 | CCOC(=O)CN1CCn2c(C(F)(F)F)ccc2C12CCN(C(=O)c1ccc(OC(C)C)c(C)c1)CC2 [Compound 426] |
| ≤ 2000 | CC1Cn2c(C(F)(F)F)ccc2C2(CCN(C(=O)c3ccc(OC(C)C)cc3F)CC2)N1 (stereo not shown) [Compound 427] |
| ≤ 2000 | CCC(=O)N1CCn2c(C(F)(F)F)ccc2C12CCN(C(=O)c1ccc(OC(C)C)c(OC)c1)CC2 [Compound 428] |
| ≤ 2000 | Cc1nc(C(=O)N2CCC3(CC2)NC(C)(C)Cn2c(C(=O)C(F)(F)F)ccc23)ccc1OC(C)C [Compound 433] |
| 2000 to 5000 | COc1cc(C(=O)N2CCC3(CC2)NCCn2c(C(F)(F)F)ccc23)ccc1OC(C)(C)C [Compound 435] |
| > 5000 | COc1cc(C(=O)N2CCC3(CC2)c2ccc(C(F)(F)F)n2CCN3C)ccc1OCCO [Compound 440] |
| ≤ 2000 | CN1CCn2c(C(F)(F)F)ccc2C12CCN(C(=O)c1ccc(S(=O)(=O)C(C)(C)C)cc1)CC2 [Compound 441] |
| ≤ 2000 | COc1cc(C(=O)N2CCC3(CC2)c2ccc(C(F)(F)F)n2CCN3C)ccc1OC(C)C [Compound 443] |
| ≤ 2000 | Cc1cc(C(=O)N2CCC3(CC2)c2ccc(C(F)(F)F)n2CCN3C)ccc1S(=O)(=O)NC(C)C [Compound 450] |
| > 5000 | CC(C)(O)c1ccc(C(=O)N2CCC3(CC2)c2ccc(C(F)(F)F)n2CCN3C2CC2)cc1 [Compound 451] |
| 2000 to 5000 | O=C(c1cccc2cccnc12)N1CCC2(CC1)NCCn1c(C(F)(F)F)ccc12 [Compound 452] |
| 2000 to 5000 | CN1CCn2c(C(=O)C(F)(F)F)ccc2C12CCN(C(=O)c1ccc(-c3ccccc3)cn1)CC2 [Compound 453] |
| ≤ 2000 | COC(=O)N1CCn2c(C(F)(F)F)ccc2C12CCN(C(=O)c1ccc(OC(C)C)c(C)c1)CC2 [Compound 460] |
| ≤ 2000 | CC(C)Oc1ccc(C(=O)N2CCC3(CC2)c2ccc(C(F)(F)C(F)(F)F)n2CCN3C)cc1CO [Compound 461] |
| > 5000 | CCNc1ncccc1C(=O)N1CCC2(CC1)c1ccc(C(F)(F)F)n1CCN2C [Compound 465] |
| 2000 to 5000 | CN1CCn2c(C(F)(F)F)cc(Cl)c2C12CCN(C(=O)c1ccc(C(C)(C)O)cc1)CC2 [Compound 469] |
| > 5000 | CC(=O)c1ccc2n1CCN(C)C21CCN(C(=O)c2cccc3cccnc23)CC1 [Compound 472] |
